PMC5835418 (Journal of pharmaceutical and biomedical analysis, 2018)
Structures can show the parent of a compound that is named as a salt.

Tests used:
[1] = ex vivo, data not shown
[2] = Plasma concentrations in mice after rectal enema dosing of TAF or CMX157; format: in vivo
[3] = data not shown
[4] = Injection matrix stability; conditions: 72 h at 4°C, compared to the previously run curve; data not shown
[5] = for number of freeze-thaw cycles for which stable: plasma, -80°C
[6] = human, 24 h
[7] = 72 h
[8] = human, 244 days
[9] = following a single 25 mg dose of TAF; ref 24 (Custodio and colleagues); cited from earlier work
[10] = cited from earlier work

CCCCCCCCCCCCCCCCOCCCOP(=O)(O)CO[C@H](C)Cn1cnc2c(N)ncnc21 [CMX157, hexadecyloxypropyl tenofovir]
time up to which stable in whole blood [1]: ≤ 8 h

CC(C)OC(=O)[C@H](C)N[P@](=O)(CO[C@H](C)Cn1cnc2c(N)ncnc21)Oc1ccccc1 [TAF, tenofovir alafenamide fumarate]
plasma TAF/TFV ratio ([2]; colonic administration of TAF, mice): < 1
time for conversion of TAF into TFV ([2]; mice dosed rectally with TAF): less than 15 minutes
plasma samples with detectable systemic TAF ([2]; mice, rectal TAF): 60%
time up to which stable in whole blood [1]: up to 1 h
stability in mouse plasma as compared to human matrices [3]: less stable
injection matrix stability [4]: unstable
number of freeze-thaw cycles for which stable [5]: two

C[C@H](Cn1cnc2c(N)ncnc21)OCP(=O)(O)O [TFV, tenofovir]
sample matrix stability %DIF [6]: -14.5-8.45%
injection matrix stability %DIF [7]: −8.44-5.57%
long term storage stability %DIF [8]: ≤ ±10.5%
Cmax [9]: 9.5 ng/mL
freeze-thaw stability %DIF ([5]; human): -15.2-3.04%
number of freeze-thaw cycles for which stable [5]: three

CC(C)OC(=O)OCOP(=O)(CO[C@H](C)Cn1cnc2c(N)ncnc21)OCOC(=O)OC(C)C [TDF, tenofovir disoproxil fumarate]
increase in TFV bioavailability by prodrug administration [10]: 25%
